Data on 13 compounds can be found in ChEMBL document CHEMBL5518220, “The Discovery of 7-Isopropoxy-2-(1-methyl-2-oxabicyclo[2.1.1]hexan-4-yl)-N-(6-methylpyrazolo[1,5-a]pyrimidin-3-yl)imidazo[1,2-a]pyrimidine-6-carboxamide (BIO-7488), a Potent, Selective, and CNS-Penetrant IRAK4 Inhibitor for the Treatment of Ischemic Stroke” (J Med Chem, 2024).

Series [1] is described as follows: Metabolic stability in human hepatocytes assessed as intrinsic clearance. The format is ADME, cell-based, Hepatocyte. The settings on record: read-out: CLH.
Series [2] in a line: Metabolic stability in human liver microsomes assessed as intrinsic clearance. The format is ADME, Microsome. The settings on record: read-out: CLH.
The target of series [3] is T1, Interleukin-1 receptor-associated kinase 4 (Homo sapiens, UniProt Q9NWZ3).
T1 sequence (Q9NWZ3 whole entry): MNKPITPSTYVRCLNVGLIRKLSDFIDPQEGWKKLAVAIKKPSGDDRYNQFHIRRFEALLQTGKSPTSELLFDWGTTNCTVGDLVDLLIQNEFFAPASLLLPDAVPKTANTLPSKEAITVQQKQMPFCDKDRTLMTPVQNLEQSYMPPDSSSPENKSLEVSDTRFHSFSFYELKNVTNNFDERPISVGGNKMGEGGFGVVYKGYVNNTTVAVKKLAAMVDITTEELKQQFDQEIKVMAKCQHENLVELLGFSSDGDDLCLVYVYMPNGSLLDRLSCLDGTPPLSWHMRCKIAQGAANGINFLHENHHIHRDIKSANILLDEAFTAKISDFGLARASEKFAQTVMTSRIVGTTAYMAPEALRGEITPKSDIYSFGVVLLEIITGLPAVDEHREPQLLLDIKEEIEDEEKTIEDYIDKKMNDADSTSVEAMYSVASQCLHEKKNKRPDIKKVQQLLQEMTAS

A short description of series [4]: Unbound brain-to-plasma concentration ratio in iv dosed rat measured at 4 to 24 hrs by LC-MS/MS analysis. The series is classed as ADME, organism-based. The following applies: brain and plasma, time 4-24 hrs, read-out: K(p,uu,brain).
Series [5] can be described thus: Clearance in rat at 1 mg/kg, iv by LC-MS/MS analysis. The series is classed as ADME, organism-based. The settings on record: in vivo.
A short description of series [6]: Metabolic stability in rat liver microsomes assessed as intrinsic clearance. The following applies: read-out: CLH. The series is classed as ADME, Microsome.
A further series relates to MDR1 (P-gp). Put plainly: Efflux ratio of apparent permeability across basolateral to apical side over apical to basolateral side in MDCK-MDR1 cells at 1 uM incubated for 120 mins by LC-MS/MS analysis. The format is ADME, cell-based, Canis lupus familiaris. The settings on record: dog.
Series [7] is described as follows: Unbound clearance in rat at 1 mg/kg, iv by LC-MS/MS analysis. The format is ADME, organism-based. The following applies: in vivo.
Series [8] in a line: Metabolic stability in rat hepatocytes assessed as intrinsic clearance. The following applies: read-out: CLH. The series is classed as ADME, cell-based, Hepatocyte.
In series [9] the target is Voltage-gated inwardly rectifying potassium channel KCNH2 (Homo sapiens, UniProt Q12809). Put plainly: Inhibition of hERG by patch clamp method. The series is classed as toxicity.
Chain of Voltage-gated inwardly rectifying potassium channel KCNH2 (Q12809 whole entry): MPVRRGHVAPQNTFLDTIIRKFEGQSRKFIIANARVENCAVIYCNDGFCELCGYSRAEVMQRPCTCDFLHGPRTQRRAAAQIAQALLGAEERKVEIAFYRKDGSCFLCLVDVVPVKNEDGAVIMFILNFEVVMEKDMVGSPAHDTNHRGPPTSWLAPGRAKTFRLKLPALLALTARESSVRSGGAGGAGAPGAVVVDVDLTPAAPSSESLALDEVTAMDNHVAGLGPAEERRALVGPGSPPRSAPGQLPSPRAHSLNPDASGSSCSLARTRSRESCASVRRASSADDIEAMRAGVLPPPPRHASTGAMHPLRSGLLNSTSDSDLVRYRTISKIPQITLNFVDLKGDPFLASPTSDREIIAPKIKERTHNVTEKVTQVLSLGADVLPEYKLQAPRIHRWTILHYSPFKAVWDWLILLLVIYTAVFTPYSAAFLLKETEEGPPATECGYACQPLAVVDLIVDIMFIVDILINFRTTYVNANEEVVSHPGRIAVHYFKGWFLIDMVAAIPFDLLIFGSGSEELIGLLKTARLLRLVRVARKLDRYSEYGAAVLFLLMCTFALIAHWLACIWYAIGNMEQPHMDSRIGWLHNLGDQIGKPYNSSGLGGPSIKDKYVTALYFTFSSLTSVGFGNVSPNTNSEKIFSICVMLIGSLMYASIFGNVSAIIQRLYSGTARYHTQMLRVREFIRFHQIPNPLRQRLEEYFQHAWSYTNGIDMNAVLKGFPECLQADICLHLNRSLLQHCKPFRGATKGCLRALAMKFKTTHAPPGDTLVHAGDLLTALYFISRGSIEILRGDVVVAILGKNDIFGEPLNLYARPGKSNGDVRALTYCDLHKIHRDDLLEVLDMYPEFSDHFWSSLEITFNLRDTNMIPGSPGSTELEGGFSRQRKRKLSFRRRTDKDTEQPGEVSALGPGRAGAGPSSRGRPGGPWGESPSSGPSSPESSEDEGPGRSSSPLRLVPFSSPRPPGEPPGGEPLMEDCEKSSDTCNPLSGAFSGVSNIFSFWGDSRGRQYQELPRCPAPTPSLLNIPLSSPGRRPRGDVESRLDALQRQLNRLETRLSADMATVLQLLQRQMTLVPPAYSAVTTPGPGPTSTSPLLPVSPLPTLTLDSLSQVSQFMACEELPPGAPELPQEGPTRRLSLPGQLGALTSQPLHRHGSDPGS

As for `CCOc1cc2nc(C3CCOCC3)cn2cc1NC(=O)c1cccc(C(F)F)n1`, the CLint scaled in series [1] came out at 45 mL/min/kg; in series [2] it was 27 mL/min/kg; in series [6], 40 mL/min/kg; in series [8], 63 mL/min/kg. Further, the IC50 in [3] is 0.6 nM. Besides, the Kp uu in [4] is 0.3. The compound further showed a clearance in series [5] of 57 mL/min/kg. Besides, the efflux ratio at 2 h, 1 µM in the series with MDR1 (P-gp) worked out at 2. In series [7], this compound displayed a CL free of 1738 mL/min/kg.
Consider `CCOc1cc2nc(CCCOC)cn2cc1NC(=O)c1cccc(C(F)F)n1`, for which the CLint scaled came to 55 mL/min/kg in series [2] and 266 mL/min/kg in series [6]. In addition, in [3], the 50% inhibitory concentration (IC50) stood at 1.4 nM. In the series with MDR1 (P-gp), the efflux ratio at 2 h, 1 µM was 1.1.
Consider `CCOc1cc2nc(C(C)(C)O)cn2cc1NC(=O)c1cccc(C(F)F)n1`, for which the figures for the CLint scaled in series [2] and in series [6] were < 4.7 mL/min/kg and < 10.7 mL/min/kg, respectively. Further, in the series with MDR1 (P-gp), the efflux ratio at 2 h, 1 µM was 5.5.
Regarding `COc1cc(NC(=O)c2cccc(C(F)(F)F)n2)cn2cc(C3CCOCC3)nc12`, the CLint scaled is 8 mL/min/kg in [1], < 5 mL/min/kg in series [2], 20 mL/min/kg in [6] and < 3 mL/min/kg in [8]. Besides, the Kp uu in series [4] worked out at 0.2. The clearance in series [5] amounted to 10 mL/min/kg. This compound showed a CL free in [7] of 45 mL/min/kg.
As for `CC(C)Oc1cc2nc(C3CCOCC3)cn2cc1C(=O)Nc1cccc(C(F)F)n1`, the CLint scaled amounted to 28 mL/min/kg in [1], 21 mL/min/kg in [2], 81 mL/min/kg in series [6] and 29 mL/min/kg in series [8]. The same compound yielded an IC50 in series [3] of 0.25 nM.
On to `CC(C)Oc1nc2nc(C34COC(C)(C3)C4)cn2cc1C(=O)Nc1cnn2ccncc12`, for which, in [3], inhibition was half-maximal at 16.3 nM (IC50).
With `CCOc1cc2nc(C3(OC)CC3)cn2cc1NC(=O)c1cccc(C(F)F)n1`, the CLint scaled in series [2] was determined as 68 mL/min/kg; in series [6], 198 mL/min/kg. In addition, the efflux ratio at 2 h, 1 µM in the series with MDR1 (P-gp) amounted to 0.7.
For `CCOc1cc2nc(CCOC)cn2cc1NC(=O)c1cccc(C(F)F)n1` the same measures were 32 mL/min/kg, 240 mL/min/kg and 0.5.
For `CCOc1cc2nc(C34COC(C)(C3)C4)cn2cc1NC(=O)c1cccc(C(F)F)n1`, the CLint scaled in series [1] was 19 mL/min/kg; in series [2], 5.4 mL/min/kg; in series [6], < 11 mL/min/kg; in series [8], 11 mL/min/kg. The results for the half-maximal inhibitory concentration (IC50) in series [3] and in series [9] were 0.2 nM and 780 nM, respectively. Besides, in series [4], the Kp uu came out at 0.4. Also, the clearance in series [5] was found to be 37 mL/min/kg. In addition, the efflux ratio at 2 h, 1 µM in the series on MDR1 (P-gp) turned out to be 1.4. Further, the CL free in [7] amounted to 1388 mL/min/kg.
As to `Cc1cc2nc(C3CCOCC3)cn2cc1NC(=O)c1cccc(C(F)F)n1`, the CLint scaled in [1] was 18 mL/min/kg; in series [2], < 5 mL/min/kg; in series [6], 20 mL/min/kg; in [8], 36 mL/min/kg. The compound further registered a half-inhibitory concentration (IC50) in series [3] of 150 nM. Moreover, the Kp uu in series [4] was 1. This compound also returned a clearance in series [5] of 16 mL/min/kg. Besides, in series [7], the CL free came to 149 mL/min/kg.
Turning to `CC(C)Oc1cc2nc(C3CCOCC3)cn2cc1NC(=O)c1cccc(C(F)F)n1`, the CLint scaled was 75 mL/min/kg in series [1], 30 mL/min/kg in series [2], 61 mL/min/kg in series [6] and 37 mL/min/kg in [8]. In addition, in [3], inhibition was half-maximal at 0.2 nM (IC50). For the same compound, in series [4], the Kp uu amounted to 0.4. The same compound had a clearance in series [5] of 22 mL/min/kg. The same compound returned a CL free in series [7] of 1788 mL/min/kg.
Turning to `Cc1cc(NC(=O)c2cccc(C(F)F)n2)cn2cc(C3CCOCC3)nc12`, the CLint scaled in series [1] amounted to 16 mL/min/kg; in series [2], 11 mL/min/kg; in series [6], 26 mL/min/kg; in [8], 12 mL/min/kg. The same compound came in with an IC50 in series [3] of 130 nM. The Kp uu in series [4] came to 0.7. Moreover, the clearance in series [5] turned out to be 20 mL/min/kg. Besides, the CL free in series [7] amounted to 227 mL/min/kg.
On to `CCOc1cc2nc(C3CC3)cn2cc1NC(=O)c1cccc(C(F)F)n1`, for which the figures for the CLint scaled in [2] and in [6] were 20 mL/min/kg and 145 mL/min/kg, respectively. In addition, in the series on MDR1 (P-gp), the efflux ratio at 2 h, 1 µM is 0.4.
